The target of the assay is T1, human GPR40 (Homo sapiens, UniProt O14842).
T1 construct: expressed in transfected cells
Kind of assay: GPR40 calcium flux assay (hGPR40 Ca2+ Assay). The settings on record: transfected HEK293 cells stably expressing human GPR40; Fluo 8 calcium dye; multiple values = repeated testing; read-out: hGPR40 Ca^2+ Assay EC50. Format: cell-based. The protocol:
Compounds were tested in a calcium flux assay using transfected HEK293 cells stably expressing either human GPR40 or rat GPR40. Human GPR40 expressing cells were cultured in DMEM-High Glucose media supplemented with 10% fetal bovine serum, 1× L-Glutamine, 1× Penicillin/Streptomycin and 500 μg/mL G418. Rat GPR40 expressing cells were cultured in DMEM-High Glucose media supplemented with 10% fetal bovine serum and 1 μg/mL puromycin. Cells were plated into poly-D-lysine coated 384-well plates and cultured overnight in a 37° C. humidified tissue culture incubator under 5% CO2/[…] atmosphere. On the day of the experiment, the culture media was replaced with assay buffer (HBSS, 20 mM HEPES, 0.1% BSA) and the cells incubated at 37° C. for 1 h. Calcium-sensitive fluorescent dye (Fluo 8 No-Wash Calcium Dye, ABD Bioquest) was then added and the cells incubated for another 30 min at 37° C. followed by 15 min at room temperature while protected from the light. The cell plate and a plate of diluted compounds of Formula (III) were loaded into a fluorescent plate reader that added compounds onto the cells while measuring the fluorescence intensity of each well. The plate reader recorded fluorescence intensity at 1 second intervals for 8 min and provided the data for analysis in an Excel format. EC50 values were calculated using Prism (GraphPad) software.
Background: A change in cytosolic calcium serves as a functional read-out for many receptors and channels.

Several values for one entry are separate records, joined by “and”; a condition that tells them apart may be missing. Equal entries are not always repeated.

T1 sequence (O14842 whole entry): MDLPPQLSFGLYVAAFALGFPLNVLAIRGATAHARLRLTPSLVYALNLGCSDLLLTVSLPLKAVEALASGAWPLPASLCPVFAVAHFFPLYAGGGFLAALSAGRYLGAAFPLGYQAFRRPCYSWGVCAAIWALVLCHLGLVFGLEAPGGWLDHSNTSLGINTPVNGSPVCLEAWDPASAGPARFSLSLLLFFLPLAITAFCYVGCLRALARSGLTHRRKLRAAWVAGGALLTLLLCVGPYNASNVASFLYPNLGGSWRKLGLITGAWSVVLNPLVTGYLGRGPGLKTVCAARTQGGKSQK

For `COc1ccc(F)c(-n2nnc(COc3cc(C(CC(=O)O)C4CC4)ccn3)c2C2=CCCC2(C)C)c1` (racemic) [Cpd 63, 3-cyclopropyl-3-[2-[[5-(5,5-dimethylcyclopenten-1-yl)-1-(2-fluoro-5-methoxy-phenyl)triazol-4-yl]methoxy]-4-pyridyl]propanoic acid], the EC50 (usually the concentration giving half of the maximal effect) is 1 nM.

Regarding `COc1ccc(F)c(-n2nnc(COc3cccc([C@@H](CC(=O)O)C4CC4)c3)c2N2CCCCC2)c1` [Cpd 44, (3S)-3-cyclopropyl-3-[3-[[1-(2-fluoro-5-methoxy-phenyl)-5-(1-piperidyl)triazol-4-yl]methoxy]phenyl]propanoic acid], the EC50 amounted to 14 nM.

On to `COc1ccc(F)c(-n2nnc(COc3cc([C@@H](CC(=O)O)C4CC4)ccn3)c2C2=CCCC2(C)C)c1` [Cpd 64, (3S)-3-cyclopropyl-3-[2-[[5-(5,5-dimethylcyclopenten-1-yl)-1-(2-fluoro-5-methoxy-phenyl)triazol-4-yl]methoxy]-4-pyridyl]propanoic acid], for which the EC50 was 1 nM.

Regarding `COc1ccc(F)c(-n2ncc(COc3cc(C(CC(=O)O)C4CC4)ccn3)c2C2=CCCC2(C)C)c1` (stereo not shown) [Cpd 65, 3-cyclopropyl-3-[2-[[5-(5,5-dimethylcyclopenten-1-yl)-1-(2-fluoro-5-methoxy-phenyl)pyrazol-4-yl]methoxy]-4-pyridyl]propanoic acid], the EC50 was 1 nM.

`COc1ccc(F)c(-n2ncc(COc3cccc([C@@H](CC(=O)O)C4CC4)c3)c2C2=CCCC2(C)C)c1` [Cpd 66, (3S)-3-cyclopropyl-3-[3-[[5-(5,5-dimethylcyclopenten-1-yl)-1-(2-fluoro-5-methoxy-phenyl)pyrazol-4-yl]methoxy]phenyl]propanoic acid]: the EC50 was 2 nM and 1 nM.

As for `COc1ccc(F)c(-n2nnc(COc3cccc([C@@H](CC(=O)O)C4CC4)c3)c2OC2CCCC2)c1` [Cpd 67, (3S)-3-[3-[[5-(cyclopentoxy)-1-(2-fluoro-5-methoxy-phenyl)triazol-4-yl]methoxy]phenyl]-3-cyclopropyl-propanoic acid], the EC50 is 6 nM and 10 nM (2×).

Consider `COc1ccc(F)c(-n2nnc(COc3cccc([C@@H](CC(=O)O)C4CC4)c3)c2N2CC3(CCC3)C2)c1` [Cpd 68, (3S)-3-[3-[[5-(6-azaspiro[3.3]heptan-6-yl)-1-(2-fluoro-5-methoxy-phenyl)triazol-4-yl]methoxy]phenyl]-3-cyclopropyl-propanoic acid], for which the EC50 was 7 nM and 12 nM and 11 nM.

As to `COc1ccc(F)c(-n2ncc(COc3cccc([C@@H](CC(=O)O)C4CC4)c3)c2C2CC2)c1` [Cpd 69, (3S)-3-cyclopropyl-3-[3-[[5-cyclopropyl-1-(2-fluoro-5-methoxy-phenyl)pyrazol-4-yl]methoxy]phenyl]propanoic acid], the EC50 was 15 nM and 21 nM and 17 nM.

For the compound `COc1cc(-n2ncc(COc3cccc([C@@H](CC(=O)O)C4CC4)c3)c2C2CC2)c(F)cn1` [Cpd 70, (3S)-3-cyclopropyl-3-[3-[[5-cyclopropyl-1-(5-fluoro-2-methoxy-4-pyridyl)pyrazol-4-yl]methoxy]phenyl]propanoic acid], the EC50 turned out to be 16 nM.

For `COc1ccc(F)c(-n2ncc(COc3cc(C(CC(=O)O)C4CC4)c(Cl)cn3)c2C2=CCCC2(C)C)c1` (stereo not shown) [Cpd 71, 3-[5-chloro-2-[[5-(5,5-dimethylcyclopenten-1-yl)-1-(2-fluoro-5-methoxy-phenyl)pyrazol-4-yl]methoxy]-4-pyridyl]-3-cyclopropyl-propanoic acid], the EC50 amounted to 24 nM.

As to `COc1ccc(F)c(-n2cc(COc3cccc([C@@H](CC(=O)O)C4CC4)c3)cn2)c1` [Cpd 72, (3S)-3-cyclopropyl-3-[3-[[1-(2-fluoro-5-methoxy-phenyl)pyrazol-4-yl]methoxy]phenyl]propanoic acid], the concentration giving a half-maximal response (EC50) is 24 nM and 45 nM and 39 nM.

As to `COc1ccc(F)c(-n2ncc(COc3cccc([C@@H](CC(=O)O)C4CC4)c3)c2N2CCOCC2)c1` [Cpd 73, (3S)-3-cyclopropyl-3-[3-[[1-(2-fluoro-5-methoxy-phenyl)-5-morpholino-pyrazol-4-yl]methoxy]phenyl]propanoic acid], the EC50 amounted to 27 nM.

`COc1ccc(F)c(-n2nnc(/C=C/c3cccc([C@@H](CC(=O)O)C4CC4)c3)c2C2CC2)c1` [Cpd 74, (3S)-3-cyclopropyl-3-[3-[(E)-2-[5-cyclopropyl-1-(2-fluoro-5-methoxy-phenyl)triazol-4-yl]vinyl]phenyl]propanoic acid]: the EC50 worked out at 38 nM.

Consider `COc1ccc(F)c(-n2nnc(COc3cc([C@H](CC(=O)O)C4CC4)ccn3)c2C2=CCCC2(C)C)c1` [Cpd 75, (3R)-3-cyclopropyl-3-[2-[[5-(5,5-dimethylcyclopenten-1-yl)-1-(2-fluoro-5-methoxy-phenyl)triazol-4-yl]methoxy]-4-pyridyl]propanoic acid], for which the EC50 was determined as 60 nM.

As to `COc1ccc(F)c(-n2ncc(/C=C/c3cccc(C(CC(=O)O)C4CC4)c3)c2C2CC2)c1` (stereo not shown) [Cpd 76, 3-cyclopropyl-3-[3-[(E)-2-[5-cyclopropyl-1-(2-fluoro-5-methoxy-phenyl)pyrazol-4-yl]vinyl]phenyl]propanoic acid], the concentration giving a half-maximal response (EC50) was determined as 66 nM.

On to `COc1ccc(F)c(-n2ncc(CCc3cccc(C(CC(=O)O)C4CC4)c3)c2C2CC2)c1` (stereo not shown) [Cpd 77, 3-cyclopropyl-3-[3-[2-[5-cyclopropyl-1-(2-fluoro-5-methoxy-phenyl)pyrazol-4-yl]ethyl]phenyl]propanoic acid], for which the EC50 came out at 66 nM.

In the case of `COc1ccc(F)c(-n2nnc(COc3cc(C(CC(=O)O)C4CC4)c(Cl)cn3)c2C2=CCCC2(C)C)c1` (stereo not shown) [Cpd 78, 3-[5-chloro-2-[[5-(5,5-dimethylcyclopenten-1-yl)-1-(2-fluoro-5-methoxy-phenyl)triazol-4-yl]methoxy]-4-pyridyl]-3-cyclopropyl-propanoic acid], the EC50 is 69 nM.

As for `COc1ccc(F)c(-n2nnc(CCc3cccc([C@@H](CC(=O)O)C4CC4)c3)c2C2CC2)c1` [Cpd 79, (3S)-3-cyclopropyl-3-[3-[2-[5-cyclopropyl-1-(2-fluoro-5-methoxy-phenyl)triazol-4-yl]ethyl]phenyl]propanoic acid], the concentration for a half-maximal effect (EC50) amounted to 103 nM.

`COc1ccc(F)c(-n2nnc(COc3cccc([C@@H](CC(=O)O)C4CC4)c3)c2N2CCOCC2)c1` [Cpd 80, (3S)-3-cyclopropyl-3-[3-[[1-(2-fluoro-5-methoxy-phenyl)-5-morpholino-triazol-4-yl]methoxy]phenyl]propanoic acid]: the half-maximal effective concentration (EC50) was determined as 273 nM.

As to `COc1ccc(F)c(-n2nnc(COc3cccc([C@@H](CC(=O)O)C4CC4)c3)c2C)c1` [Cpd 82, (3S)-3-cyclopropyl-3-[3-[[1-(2-fluoro-5-methoxy-phenyl)-5-methyl-triazol-4-yl]methoxy]phenyl]propanoic acid], the 50% effective concentration (EC50) is 261 nM and 248 nM.

Regarding `COc1ccc(F)c(-n2nnc(COc3cccc([C@@H](CC(=O)O)C4CC4)c3)c2CC(C)C)c1` [Cpd 83, (3S)-3-cyclopropyl-3-[3-[[1-(2-fluoro-5-methoxy-phenyl)-5-isobutyl-triazol-4-yl]methoxy]phenyl]propanoic acid], the EC50 was 7 nM and 6 nM.

As for `COc1ccc(F)c(-n2nnc(COc3cccc([C@@H](CC(=O)O)C4CC4)c3)c2C=C(C)C)c1` [Cpd 84, (3S)-3-cyclopropyl-3-[3-[[1-(2-fluoro-5-methoxy-phenyl)-5-(2-methylprop-1-enyl)triazol-4-yl]methoxy]phenyl]propanoic acid], the concentration giving a half-maximal response (EC50) was 38 nM and 31 nM and 37 nM (2×).

Consider `COc1ccc(F)c(-n2nnc(COc3cccc([C@@H](CC(=O)O)C4CC4)c3)c2C2CC2)c1` [Cpd 85, (3S)-3-cyclopropyl-3-[3-[[5-cyclopropyl-1-(2-fluoro-5-methoxy-phenyl)triazol-4-yl]methoxy]phenyl]propanoic acid], for which the EC50 is 65 nM and 63 nM.

As to `COc1ccc(F)c(-n2nnc(COc3cccc([C@@H](CC(=O)O)C4CC4)c3)c2C2=CCCC2(C)C)c1` [Cpd 86, (3S)-3-cyclopropyl-3-[3-[[5-(5,5-dimethylcyclopenten-1-yl)-1-(2-fluoro-5-methoxy-phenyl)triazol-4-yl]methoxy]phenyl]propanoic acid], the concentration giving a half-maximal response (EC50) was 4 nM and 2 nM.

Turning to `COc1ccc(F)c(-n2cnc(COc3cccc([C@@H](CC(=O)O)C4CC4)c3)c2C2=CCCC2(C)C)c1` [Cpd 87, (3S)-3-cyclopropyl-3-[3-[[5-(5,5-dimethylcyclopenten-1-yl)-1-(2-fluoro-5-methoxy-phenyl)imidazol-4-yl]methoxy]phenyl]propanoic acid], the EC50 is 85 nM and 68 nM.

For `COc1ccc(F)c(-n2nnc(COc3cccc([C@@H](CC(=O)O)C4CC4)c3)c2-c2ccc(C)s2)c1` [Cpd 88, (3S)-3-cyclopropyl-3-[3-[[1-(2-fluoro-5-methoxy-phenyl)-5-(5-methyl-2-thienyl)triazol-4-yl]methoxy]phenyl]propanoic acid], the EC50 was 24 nM and 23 nM.

For the compound `COc1ccc(F)c(-n2ncc(COc3cccc([C@@H](CC(=O)O)C4CC4)c3)c2C=C(C)C)c1` [Cpd 89, (3S)-3-cyclopropyl-3-[3-[[1-(2-fluoro-5-methoxy-phenyl)-5-(2-methylprop-1-enyl)pyrazol-4-yl]methoxy]phenyl]propanoic acid], the EC50 was 11 nM and 9 nM.

Take `COc1ccc(F)c(-n2ncc(COc3cccc([C@@H](CC(=O)O)C4CC4)c3)c2Br)c1` [Cpd 90, (3S)-3-[3-[[5-bromo-1-(2-fluoro-5-methoxy-phenyl)pyrazol-4-yl]methoxy]phenyl]-3-cyclopropyl-propanoic acid]: the EC50 is 86 nM and 83 nM.

The values are drawn from patent publication US9856245B2, “GPR40 agonists for the treatment of type II diabetes” (Janssen Pharmaceutica NV, priority 2015, dated 2018).
